Source: patent EP0136586A2, “Novel corticoid derivatives and process for production thereof” (priority 1983, dated 1985)

Assays:
[1] = test system: edema; test: Topical anti-inflammatory activity (croton oil ear edema); format: in vivo, Male mice of ddY-strain; settings: for Anti-inflammatory activity ratio (A): ratio against clobetasol 17-propionate (=1), linear regression parallel test method, edema-repressing rate, topical application to mouse ear with croton oil, 5th hour after application; for R=A/B: anti-inflammatory activity ratio (A) divided by thymolytic activity ratio (B)
Method: 0.9 % sodium chloride, 0.4 % Tween 80, 0.5 % carboxymethyl cellulose and 0.9 % benzyl alcohol are dissolved or suspended in distilled water, which is used as a suspending medium. The compounds to be tested are dissolved in a mixture of the suspending medium : pyridine : diethyl ether = 1 : 4 : 5 and mixed with equal volume of diethyl ether containing 10 % croton oil and the mixture is used as the test liquid. Commercially available felt having a thickness of 5 mm is cut in 7mm x 7 mm square and adhered to ring tweezers using alkyl-a-cyanoacrylate. The felt is soaked in the test liquid and the liquid is applied to the right ear of the mouse by rubbing it with the felt at a fixed pressure without anesthesia. The left ear is left untreated. At 5th hours after application, mice are killed and both of the ears are cut and weighed. The rate (%) of increase in the weight of right ear against that of left ear is calculated as the edema ratio. Edema ratios obtained on the test compounds are compared with those obtained on control and edema-repressing rate is obtained.

[2] = test system: thymus gland; settings: rat, in vivo, sc, 11520 min
Method: 2) Experiment on thymolytic action
The compounds to be tested are dissolved in a liquid consisting of croton oil : cotton seed oil : ethanol = 1:89:10 and the solution is used for injection.
The rats are anesthesized by inhalation of ether and 20 ml of air are subcutaneously injected into hypodermic organ at the back of the rats using a thin injection needle to form an oval-shaped air cavity. After the rats recovered from anesthesia they are kept on normal food and water. At 8th days after injection, rats are killed by depletion and dissected. The thymus gland is taken out and the wet weight is measured. Thymus weights obtained on the test compounds are divided with those obtained on control, and thymus gland atrophy rate is obtained.
In each of the experiments on anti-inflammatory activity and thymolytic action, clobetasol 17-propionate and betamethasone 17,21-dipropionate are used standard compounds and anti-inflammatory activity ratio and thymolytic activity ratio against clobetasol 17-propionate are calculated using linear regression parallel test method.

Row | Compound | Anti-inflammatory activity ratio (A) [1] | Thymolytic activity ratio (B) [2] | R=A/B [1]
1 | 21-chloro-9a-fluoro-16a-methyl-l,4-pregnadiene-11β,17α-diol-3,6,20-trione 17a-methyl carbonate [Example 8] | 0.51 | – | –
2 | 21-chloro-9α-fluoro-16β-mathyl-1,4-pregnadiene-11β,17α-diol-3,6,20-trione 17α-methyl carbonate [Example 2] | 3.0 | 0.018 | –
3 | 21-chloro-9α-fluoro-16β-methyl-1,4-pregnadiene-11β,17α-diol-3,6,20-trione 17a-ethyl carbonate [Example 4] | 1.3 | 0.048 | –
4 | CCC(=O)OCC(=O)[C@@]1(OC(=O)CC)[C@@H](C)C[C@H]2[C@@H]3CCC4=CC(=O)C=C[C@]4(C)[C@@]3(F)[C@@H](O)C[C@@]21C [Betamethasone 17,21-dipropionate, betamethasone 17,21-dipropionate, reference compound] | 0.080 | 0.030 | 2.7
5 | CCC(=O)O[C@]1(C(=O)CCl)[C@@H](C)C[C@H]2[C@@H]3CCC4=CC(=O)C=C[C@]4(C)[C@@]3(F)[C@@H](O)C[C@@]21C [Clobetasol 17-propionate, clobetasol 17-propionate, reference compound] | – | 1 | 1
6 | CCC(=O)O[C@]1(C(=O)CCl)[C@@H](C)C[C@H]2[C@@H]3CC(=O)C4=CC(=O)C=C[C@]4(C)[C@@]3(F)[C@@H](O)C[C@@]21C [Comparative Example 1, 21-chloro-9α-fluoro-16β-methyl-1,4-pregnadiene-11S,17a-diol-3,6,20-trione 17a-propionate, reference compound] | 0.53 | 0.29 | 1.8
7 | COC(=O)O[C@]1(C(=O)CCl)[C@@H](C)C[C@H]2[C@@H]3CCC4=CC(=O)C=C[C@]4(C)[C@@]3(F)[C@@H](O)C[C@@]21C [Comparative Example 2, 21-chloro-9α-fluoro-16β-methyl-1,4-pregnadiene-11β,17α-diol-3,20-dione 17a-methyl carbonate, reference compound] | 0.96 | 1.2 | 0.8
8 | CCCOC(=O)O[C@]1(C(=O)CCl)[C@@H](C)C[C@H]2[C@@H]3CC(=O)C4=CC(=O)C=C[C@]4(C)[C@@]3(F)[C@@H](O)C[C@@]21C [Example 6, 21-chloro-9α-fluoro-16β-methyl-1,4-pregnadiene-11β,17α-diol-3,6,20-trione 17a-propyl carbonate] | 0.74 | 0.24 | 3.1
9 | COC(=O)CCC(=O)O[C@]1(C(=O)CCl)[C@@H](C)C[C@H]2[C@@H]3CCC4=CC(=O)C=C[C@]4(C)[C@@]3(F)[C@@H](O)C[C@@]21C [Example 12, 21-chloro-9α-fluoro-16β-methyl-1,4-pregnadiene-11β,17α-diol-3,20-dione 17a-(6-methoxycarbonyl propionate)] | 1.3 | 0.072 | 18
10 | COC(=O)CCC(=O)O[C@]1(C(=O)CCl)[C@@H](C)C[C@H]2[C@@H]3CC(=O)C4=CC(=O)C=C[C@]4(C)[C@@]3(F)[C@@H](O)C[C@@]21C [Example 13, 21-chloro-9α-fluoro-16β-methyl-1,4-pregnadiene-11β,17α-diol-3,6,20-trione 17α-(β-methoxycarbonyl propionate)] | 1.0 | <0.01 | >100
11 | COC(=O)CCC(=O)O[C@]1(C(=O)CCl)[C@H](C)C[C@H]2[C@@H]3CCC4=CC(=O)C=C[C@]4(C)[C@@]3(F)[C@@H](O)C[C@@]21C [Example 14, 21-chloro-9α-fluoro-16α-msthyl-1,4-pregnadiene-11β,17α-diol-3,20-dione 17α-(β-methoxycarbonyl propionate)] | 0.2 | <0.01 | > 20
12 | CCOC(=O)CCCC(=O)O[C@]1(C(=O)CCl)[C@@H](C)C[C@H]2[C@@H]3CCC4=CC(=O)C=C[C@]4(C)[C@@]3(F)[C@@H](O)C[C@@]21C [Example 15, 21-chloro-9α-fluoro-16β-methyl-1,4-pregnadiene-11β,17α-diol-3,20-dione 17a-(y-ethoxycarbonyl butyrate)] | 0.68 | 0.012 | 57
13 | CCOC(=O)CCC(=O)O[C@]1(C(=O)CCl)[C@@H](C)C[C@H]2[C@@H]3CCC4=CC(=O)C=C[C@]4(C)[C@@]3(F)[C@@H](O)C[C@@]21C [Example 17, 21-chloro-9α-fluoro-16β-methyl-1,4-pregnadien-11β,17α-diol-3,20-dione 17α-(β-ethoxycarbonyl propionate)] | 0.56 | 0.007 | 80
